Source: PubChem BioAssay AID540274 (Sanford-Burnham Center for Chemical Genomics, 2011)
Calls of active or inactive are those of the source.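 How the source made its calls: active means mean IC50 below 100 µM; inactive means the rest.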

Biological target: intestinal alkaline phosphatase Alpi (Mus musculus)
Experiment: inhibitors of murine Alpi enzyme – biochemical, ortholog specificity, luminescence, set 2, selectivity assay for human IAP inhibitor project, SAR follow-up (AID 540274)
Settings: purified mouse IAP, CDP-Star luminescence, 30 min

Structure (SMILES)	IC50
N#Cc1ccc(CNC(=O)CCNS(=O)(=O)c2ccc3[nH]c(=O)oc3c2)cc1	> 100 µM (inactive)
Cc1ccc(C)c(NC(=O)CCNS(=O)(=O)c2ccc3[nH]c(=O)oc3c2)c1	0.219 µM

The remaining lines, values ahead:

IC50	Structure (SMILES)
3.31 µM	O=C(CNS(=O)(=O)c1ccc2[nH]c(=O)oc2c1)NCc1ccc2c(c1)OCO2
5.05 µM	O=C(CNS(=O)(=O)c1ccc2[nH]c(=O)oc2c1)Nc1ccc2c(c1)OCO2
23 µM	COc1ccc(NC(=O)CNS(=O)(=O)c2ccc3[nH]c(=O)oc3c2)cc1OC
